These results are taken from US6541502B1, “2-(aminomethyl)-tetrahydro-9-oxa-1,3-diaza-cyclopenta[a]-naphthalenyl derivatives with antipsychotic activity” (Wyeth, priority 2001, dated 2003).

Structures can show the parent of a compound that is named as a salt.

In one data set the target is T1, dopamine autoreceptor (Rattus norvegicus, UniProt P61169).
T1 construct: homogenized rat striatal brain tissue; from tissue; host or cells: rat striatal brain tissue homogenate
Put plainly: [3H]-quinpirole binding, dopamine autoreceptor affinity (D2 Quin.). Particulars: homogenized rat striatal brain tissue. As for the experimental part:
Affinity for the dopamine autoreceptor was established by a modification of the standard experimental test procedure of Seemen and Schaus, European Journal of Pharmacology 203: 105-109, 1991, wherein homogenized rat striatal brain tissue is incubated with [^3H]-quinpirole (Quin.) at various concentrations of test compound, filtered, washed and counted in a Betaplate scintillation counter.

A further data set deals with dopamine D2 receptor. The data set is described as follows: [3H]-spiperidone binding, dopamine D2 receptor (D2 Spiper). Particulars: ratio of D2 Spiper IC50 to D2 Quin. IC50 (LowAg/HighAg).

T1 sequence (P61169 whole entry): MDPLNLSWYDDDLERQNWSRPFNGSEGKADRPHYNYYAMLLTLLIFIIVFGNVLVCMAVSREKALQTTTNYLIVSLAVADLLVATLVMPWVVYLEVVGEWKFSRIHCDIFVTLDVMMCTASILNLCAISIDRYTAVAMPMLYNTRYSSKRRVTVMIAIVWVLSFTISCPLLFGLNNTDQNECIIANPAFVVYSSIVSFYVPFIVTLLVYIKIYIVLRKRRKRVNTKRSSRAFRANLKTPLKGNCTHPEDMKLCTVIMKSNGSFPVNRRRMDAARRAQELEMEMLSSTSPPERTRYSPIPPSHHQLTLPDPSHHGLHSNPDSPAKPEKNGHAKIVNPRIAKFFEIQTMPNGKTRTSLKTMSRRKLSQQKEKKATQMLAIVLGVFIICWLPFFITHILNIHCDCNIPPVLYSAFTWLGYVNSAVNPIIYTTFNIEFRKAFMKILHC
Description for dopamine D2 receptor: High affinity for the dopamine D2 receptor was established by the standard experimental test procedure of Fields, et al., Brain Res., 136, 5789 (1977) and Yamamura et al., ed., Neurotransmitter Receptor Binding, Chapter 9, page 171, Raven Press, N.Y. (1978) wherein homogenized limbic brain tissue is incubated with [^3H]-spiperidone at various concentrations of test compound, filtered washed, and shaken with Hydrofluor scintillation cocktail (National Diagnostics) and counted in a Packard 460 CD scintillation counter.

As a reminder, the melting point is the temperature, or range, at which the solid turns liquid. `FC(F)(F)c1nc2ccc3c(c2[nH]1)OC(CNCc1ccccc1)CC3` (stereo not drawn) (as salt: oxalate) [Example 1, Benzyl-(2-trifluoromethyl-1,6,7,8-tetrahydro-9-oxa-1,3-diaza-cyclopenta[a]naphthalen-8-ylmethyl)-amine] gave a melting point of 244 °C.
In general, IC50 refers to the concentration that inhibits the measured activity by half. The low end stands for higher potency, the high end for lower potency. `FC(F)(F)c1nc2ccc3c(c2[nH]1)OC(CNCc1ccccc1)CC3` (stereo not drawn) [Example 1, Benzyl-(2-trifluoromethyl-1,6,7,8-tetrahydro-9-oxa-1,3-diaza-cyclopenta[a]naphthalen-8-ylmethyl)-amine]: the IC50 on dopamine autoreceptor came to 11.5 nM. Moreover, the Ratio with dopamine D2 receptor is on record as 75.
